This is an account of results in patent EP0113632A1, “Process for the preparation of halogen methylates of levallorphane, and peripheral narcotic antagonist pharmaceutical compositions containing them” (SANOFI S.A., priority 1982, dated 1984).

Where only a bound is given, the exact number is not on record here.

For assay [1], the system named is effet analgésique de la morphine. The assay is described as follows: Hot plate test: antagonism of the analgesic effect of morphine. Format: in vivo, souris. The conditions noted are these: for ED50: Mus musculus, sc, read-out: Antagonisme à l'effet analgésique DI50a; for ED50 / Antagonisme à l'effet analgésique DI50a: female mice, s.c. 5 min before morphine 24 mg/kg s.c., hot plate 30 min after morphine, dose inhibiting the effect by 50 %, extrapolated from log dose-response regression, limits in parentheses; for DI50a/DI50c: ratio of DI50 for the analgesic effect (hot plate) to DI50 for the constipating effect (charcoal meal). The procedure:
L'antagonisme à l'effet analgésique de la morphine a été évalué selon le test classique pour l'analgésie de la plaque chauffante (Eddy et Leibach, J. Pharmacol. 1953, 107, 385, modifié par Janseen et Jagenau, J. Pharm. Pharmacol. 1957, 9, 381-400). Ce test est très sensible pour l'action des antogonistes des opiacés.
On utilise des souris femelles de 18 à 22 g. Les substances sont administrées en solution physiologique (20 ml/kg) par voie sous-cutanée 5 minutes avant l'administration de la morphine (24 mg/kg s.c.). Trente minutes après la morphine, on place les animaux sur la plaque chauffante et l'on évalue le temps de réaction des animaux qui présentent la réaction nocicéptive (léchage des pattes).
(§1) L'activité des substances à activité antagoniste périphérique des narcotiques est évaluée sur la base de l'inhibition pour cent de l'effet constipant et de l'effet analgésique de la morphine. La dose qui inhibe de 50 % lesdits effets (DI50c pour l'effet constipant et […] pour l'effet analgésique) a été extrapolée de la droite de régression log dose-réponse en appliquant l'analyse de la variance par régression linéaire.

Assay [2] relates to effet constipant de la morphine. The assay is described as follows: Charcoal meal intestinal transit test (Green, modified): antagonism of the constipating effect of morphine. As to conditions: for ED50: Mus musculus, sc, read-out: Antagonisme à l'effet constipant DI50c; for ED50 / Antagonisme à l'effet constipant DI50c: female mice fasted 20 h, s.c. 5 min before morphine 12 mg/kg s.c. and charcoal meal, sacrifice after 30 min, dose inhibiting the effect by 50 %, extrapolated from log dose-response regression, limits in parentheses. The format is in vivo, souris. On the procedure: L'antagonisme à l'effet constipant de la morphine des halomèthylates de lévallorphan de la présente invention a été évalué selon le test décrit par A.F. Green (Pr. J. Pharmacol. Chemother. 1959, 14, 26), opportunément modifié.
On utilise trois groupes de souris femelles de 20 g environ à jeun depuis 20 heures. A un groupe témoin, on administre par voie orale un repas constitué par 0,2 ml d'un mélange de gomme arabique 5 % (6 ml), farine (2 g) et charbon (1 g). Au deuxième groupe on administre par la voie sous-cutanée 12 mg/kg de morphine et, immédiatement après, le repas au charbon ci-dessus. Le troisième groupe est traité par l'antagoniste sous examen par voie sous-cutanée, puis, après 5 minutes, par 12 mg/kg de morphine par voie sous-cutanée et, tout de suite après, par le repas au charbon. Après trente minutes, les animaux sont sacrifiés pour l'évaluation de la portion intestinale parcourue par le charbon, exprimée en pour cent de la longueur totale de l'intestin grèle.
as §1

`C=CC[N+]1(C)CCC23c4c5ccc(O)c4OC2C(O)C=CC3C1C5` (single isomer, unassigned) [bromométhylate de nalorphine]: in assay [1], the ED50 was 8.6 mg/kg and the DI50a/DI50c was 2,32. Besides, the ED50 in assay [2] was 3.7 mg/kg.
Turning to `C=CC[N+]1(C)CC[C@]23CCCC[C@H]2[C@H]1Cc1ccc(O)cc13` (single isomer, unassigned) [iodoallylate de lévorphanol], in assay [1], the “Antagonisme à l'effet analgésique DI50a” value is listed as 50 mg/kg. For the same molecule, in assay [2] (conclusion in words, covers both the constipation and the analgesia test), the “activité antagoniste, périphérique ou centrale” value is given as “inactif”. Besides, in assay [2], the “Antagonisme à l'effet constipant DI50c” value is on record as 50 mg/kg.
Take `C=CC[N+]1(C)CC[C@]23CCCC[C@H]2[C@H]1Cc1ccc(O)cc13` (single isomer, unassigned) [iodométhylate de lévallorphan]: in assay [1], the ED50 was 50 mg/kg and the DI50a/DI50c is on record as 6,7. For the same molecule, the “Antagonisme à l'effet constipant DI50c” value in assay [2] is given as 7,6 mg/kg (4,5 - 13,0). In assay [2] (test of antagonism of the constipating effect of morphine, fold higher activity), the “activité par rapport à celle du bromoallylate de lévallorphan” value was greater than 2 fois.
As to `C=CC[N+]1(CC=C)CC[C@]23CCCC[C@H]2[C@H]1Cc1ccc(O)cc13` [bromoallylate de lévallorphan], in assay [1], the ED50 was 15.2 mg/kg and the DI50a/DI50c was 0,97. Besides, the ED50 in assay [2] was 15.6 mg/kg.
The like results for `C=CCN1CC[C@]23c4c5ccc(O)c4O[C@H]2C(=O)CC[C@@]3(O)[C@H]1C5` [naloxone, N-allyl-noroxymorphone] were, in that order, 0.06 mg/kg, 0,08 and 0.8 mg/kg.
Turning to `C=CC[N+]1(C)CCC23c4c5ccc(O)c4OC2C(=O)CCC3(O)C1C5.COS(=O)(=O)[O-]` (stereo not drawn) [sulfométhylate de naloxone], in assay [1], the “Antagonisme à l'effet analgésique DI50a” value is 1,6 mg/kg (0,7 - 3,6). The “Antagonisme à l'effet constipant DI50c” value in assay [2] is given as 5,8 mg/kg (2,9 - 11,5).
